Three compounds from ChEMBL document CHEMBL4610057, “Benzopyrimidodiazepinone inhibitors of TNK2” (Bioorg Med Chem Lett, 2020) can be followed below.

A short description of data set [1]: in vivo. To be noted: CD1, mouse, iv, 3 mg/kg.
Data set [2] is described as follows: in vivo. The note with it: CD1, mouse, po, 10 mg/kg.
Data set [3] in a line: Metabolic stability in mouse liver microsomes assessed as parent compound remaining measured after 60 mins. Type of data set: ADME, Microsome.
Data set [4] can be described thus: in vitro. The note with it: mouse, liver microsomes. A general note: Liver microsomes are a subcellular fraction often used to study metabolism.
The nature of data set [5]: in vitro. To be noted: mouse, hepatocytes.
Data set [6] in a line: in vivo. The note with it: CD1, mouse, iv, 3 mg/kg. This is another data set of the same source.
Data set [7] is described as follows: in vivo. To be noted: CD1, mouse, po, 10 mg/kg. The source holds these as a separate data set.
The conditions of data set [8]: mouse, microsomes.

Each structure is given as a SMILES string.

As usually defined, the clearance is the volume of plasma or blood freed of the substance per unit of time. The low end stands for inefficient removal, the high end for efficient removal. As a reminder, the bioavailability is the share of a dose that reaches the circulation, judged against a reference dose that is usually intravenous. High values mean good availability, low ones poor availability. As a reminder, the half-life is the time in which the quantity being followed falls by half. Low values mean fast loss, high ones slow loss. Broadly, the AUC(0-inf) is the area under the concentration-time curve extrapolated to infinity. As for `COc1cc(N2CCN(C)CC2)ccc1Nc1ncc2c(n1)N(C)c1ccccc1C(=O)N2C`, the clearance in “in vivo [1]” came to 25 mL/min/kg. In “in vivo [2]”, this compound yielded a bioavailability of 46%. Moreover, the remaining at 1 h in data set [3] (liver microsomes, read-out: Stability) amounted to 40%. Moreover, the half-life was 0.367 h in “in vitro [4]”, above 8.33 h in the data set “in vitro [5]” and 4.4 h in “in vivo [6]”. This compound also returned an AUC(0-inf) in the data set “in vivo [7]” of 2000 ng·h/mL.

`COc1cc2c(cc1Nc1ccc(Nc3ncc4c(n3)N(C)c3ccccc3C(=O)N4)cc1)CCN(C)C2` yielded a clearance in the data set “in vivo [1]” of 120 mL/min/kg. This compound also registered a bioavailability in “in vivo [2]” of 7%. The compound also gave a half-life in the data set “in vivo [6]” of 10 h. In the data set “in vivo [7]”, this compound returned an AUC(0-inf) of 125 ng·h/mL.

`COc1cc(N2CCN(C)CC2)ccc1Nc1ncc2c(n1)N(C)c1ccccc1C(=O)N2` had a clearance in “in vivo [1]” of 150 mL/min/kg. For the same compound, the bioavailability in the data set “in vivo [2]” is 5%. Besides, the t1/2 in data set [8] is 0.467 h. For the same compound, the Stability in data set [3] (microsomes, 1 h) turned out to be 2%. For the same compound, the half-life is 5.78 h in the data set “in vitro [5]” and 0.7 h in “in vivo [6]”. For the same compound, the AUC(0-inf) in the data set “in vivo [7]” stood at 56 ng·h/mL.
